Measured values taken from the kinase profiling compilation of Christmann-Franck et al. (2016).

Assays:
Test in all cases: radiometric filter-binding kinase assay, Kinase HotSpot
Conditions in all cases: compound 0.5 µM; ATP 10 µM
AURKA (human) = AURKA (human) (UniProt O14965)
AURKC (human) = AURKC (human) (UniProt Q9UQB9)
CAMK2A (human) = CAMK2A (human) (UniProt Q9UQM7)
CDC42BPA (human) = CDC42BPA (human) (UniProt Q5VT25)
CDK2 CCNE1 (human) = CDK2 CCNE1 (human) (UniProt P24941+P24864)
CDK4 CCND3 (human) = CDK4 CCND3 (human) (UniProt P30281+P11802)
CDK5 CDK5R1 p25 (human) = CDK5 CDK5R1 p25 (human) (UniProt Q00535+Q15078)
CSK (human) = CSK (human) (UniProt P41240)
CSNK1D (human) = CSNK1D (human) (UniProt P48730)
CSNK1G3 (human) = CSNK1G3 (human) (UniProt Q9Y6M4)
DSTYK (human) = DSTYK (human) (UniProt Q6XUX3)
EPHB1 (human) = EPHB1 (human) (UniProt P54762)
EPHB2 (human) = EPHB2 (human) (UniProt P29323)
FLT3 (human) = FLT3 (human) (UniProt P36888)
GSG2 (human) = GSG2 (human) (UniProt Q8TF76)
Sequence of GSG2 (human) (Q8TF76 whole entry, looked up): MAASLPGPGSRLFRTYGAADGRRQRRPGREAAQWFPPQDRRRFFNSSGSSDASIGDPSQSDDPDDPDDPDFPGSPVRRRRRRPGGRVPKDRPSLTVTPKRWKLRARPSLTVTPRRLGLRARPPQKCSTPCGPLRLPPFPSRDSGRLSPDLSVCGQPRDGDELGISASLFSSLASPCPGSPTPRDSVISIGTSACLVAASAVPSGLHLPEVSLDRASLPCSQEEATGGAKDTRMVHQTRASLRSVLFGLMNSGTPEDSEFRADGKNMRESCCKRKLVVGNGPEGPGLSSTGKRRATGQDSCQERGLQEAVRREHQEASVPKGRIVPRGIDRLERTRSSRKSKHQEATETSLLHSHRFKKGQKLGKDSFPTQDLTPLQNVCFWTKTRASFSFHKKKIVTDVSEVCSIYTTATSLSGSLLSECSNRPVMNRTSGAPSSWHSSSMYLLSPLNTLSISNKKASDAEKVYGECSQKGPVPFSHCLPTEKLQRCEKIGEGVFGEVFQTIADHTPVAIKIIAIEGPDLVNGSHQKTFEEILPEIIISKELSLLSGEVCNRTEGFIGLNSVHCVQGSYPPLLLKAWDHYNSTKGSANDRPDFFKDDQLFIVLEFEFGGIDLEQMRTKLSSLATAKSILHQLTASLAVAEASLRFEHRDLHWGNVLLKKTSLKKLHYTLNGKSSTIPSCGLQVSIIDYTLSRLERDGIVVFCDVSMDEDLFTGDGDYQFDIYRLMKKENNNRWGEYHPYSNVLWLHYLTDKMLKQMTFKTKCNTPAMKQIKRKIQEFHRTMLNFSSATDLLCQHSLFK

HIPK4 (human) = HIPK4 (human) (UniProt Q8NE63)
INSR (human) = INSR (human) (UniProt P06213)
ITK (human) = ITK (human) (UniProt Q08881)
JAK3 JH1 JH2 (human) = JAK3 JH1 JH2 (human) (UniProt P52333)
Sequence of JAK3 JH1 JH2 (human) (P52333 whole entry, looked up): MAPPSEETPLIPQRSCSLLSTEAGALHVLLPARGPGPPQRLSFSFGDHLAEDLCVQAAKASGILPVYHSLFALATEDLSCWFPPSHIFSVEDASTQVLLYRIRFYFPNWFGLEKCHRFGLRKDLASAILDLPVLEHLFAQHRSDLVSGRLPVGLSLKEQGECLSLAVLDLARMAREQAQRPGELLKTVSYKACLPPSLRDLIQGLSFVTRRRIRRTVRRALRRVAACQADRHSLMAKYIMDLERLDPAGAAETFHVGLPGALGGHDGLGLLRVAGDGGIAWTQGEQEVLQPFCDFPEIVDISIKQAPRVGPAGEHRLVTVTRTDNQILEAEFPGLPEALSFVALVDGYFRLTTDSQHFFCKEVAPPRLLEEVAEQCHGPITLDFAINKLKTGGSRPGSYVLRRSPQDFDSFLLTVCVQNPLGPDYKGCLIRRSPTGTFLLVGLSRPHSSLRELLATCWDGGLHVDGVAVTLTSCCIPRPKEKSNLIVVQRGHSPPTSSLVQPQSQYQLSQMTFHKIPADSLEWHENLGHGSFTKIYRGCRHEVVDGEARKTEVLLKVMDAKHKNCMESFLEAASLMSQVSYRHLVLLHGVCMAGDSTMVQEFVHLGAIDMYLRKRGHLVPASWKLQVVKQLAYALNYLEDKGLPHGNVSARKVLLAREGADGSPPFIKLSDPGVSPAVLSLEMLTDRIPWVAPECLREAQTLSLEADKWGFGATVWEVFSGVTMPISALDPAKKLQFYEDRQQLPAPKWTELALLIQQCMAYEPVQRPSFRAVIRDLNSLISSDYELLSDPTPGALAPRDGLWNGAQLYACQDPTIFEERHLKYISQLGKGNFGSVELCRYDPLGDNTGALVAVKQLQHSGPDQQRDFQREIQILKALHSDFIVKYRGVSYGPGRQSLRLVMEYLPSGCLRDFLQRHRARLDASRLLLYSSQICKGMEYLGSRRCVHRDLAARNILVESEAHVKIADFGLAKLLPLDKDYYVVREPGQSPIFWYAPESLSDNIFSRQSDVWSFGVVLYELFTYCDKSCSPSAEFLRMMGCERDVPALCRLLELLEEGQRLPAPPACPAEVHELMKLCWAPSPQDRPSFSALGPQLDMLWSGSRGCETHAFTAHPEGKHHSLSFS

LIMK1 (human) = LIMK1 (human) (UniProt P53667)
LRRK2 (human) = LRRK2 (human) (UniProt Q5S007)
MAP3K3 (human) = MAP3K3 (human) (UniProt Q99759)
MAP3K8 (human) = MAP3K8 (human) (UniProt P41279)
MAP3K9 (human) = MAP3K9 (human) (UniProt P80192)
MAPK8 (human) = MAPK8 (human) (UniProt P45983)
MARK1 (human) = MARK1 (human) (UniProt Q9P0L2)
MARK3 (human) = MARK3 (human) (UniProt P27448)
MATK (human) = MATK (human) (UniProt P42679)
Sequence of MATK (human) (P42679 whole entry, looked up): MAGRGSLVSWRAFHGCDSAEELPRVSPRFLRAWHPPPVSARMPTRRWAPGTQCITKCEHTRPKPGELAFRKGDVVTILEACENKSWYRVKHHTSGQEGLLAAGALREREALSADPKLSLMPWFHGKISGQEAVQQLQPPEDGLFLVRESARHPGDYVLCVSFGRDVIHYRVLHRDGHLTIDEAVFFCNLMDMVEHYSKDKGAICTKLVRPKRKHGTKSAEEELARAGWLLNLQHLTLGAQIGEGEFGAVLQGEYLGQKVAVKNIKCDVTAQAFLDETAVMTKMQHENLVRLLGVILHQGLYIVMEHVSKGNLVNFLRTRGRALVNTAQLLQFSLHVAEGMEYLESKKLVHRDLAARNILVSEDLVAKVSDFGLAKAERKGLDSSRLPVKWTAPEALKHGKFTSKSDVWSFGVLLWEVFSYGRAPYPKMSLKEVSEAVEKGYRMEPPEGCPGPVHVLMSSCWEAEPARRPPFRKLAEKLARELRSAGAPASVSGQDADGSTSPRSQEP

MELK (human) = MELK (human) (UniProt Q14680)
Sequence of MELK (human) (Q14680 whole entry, looked up): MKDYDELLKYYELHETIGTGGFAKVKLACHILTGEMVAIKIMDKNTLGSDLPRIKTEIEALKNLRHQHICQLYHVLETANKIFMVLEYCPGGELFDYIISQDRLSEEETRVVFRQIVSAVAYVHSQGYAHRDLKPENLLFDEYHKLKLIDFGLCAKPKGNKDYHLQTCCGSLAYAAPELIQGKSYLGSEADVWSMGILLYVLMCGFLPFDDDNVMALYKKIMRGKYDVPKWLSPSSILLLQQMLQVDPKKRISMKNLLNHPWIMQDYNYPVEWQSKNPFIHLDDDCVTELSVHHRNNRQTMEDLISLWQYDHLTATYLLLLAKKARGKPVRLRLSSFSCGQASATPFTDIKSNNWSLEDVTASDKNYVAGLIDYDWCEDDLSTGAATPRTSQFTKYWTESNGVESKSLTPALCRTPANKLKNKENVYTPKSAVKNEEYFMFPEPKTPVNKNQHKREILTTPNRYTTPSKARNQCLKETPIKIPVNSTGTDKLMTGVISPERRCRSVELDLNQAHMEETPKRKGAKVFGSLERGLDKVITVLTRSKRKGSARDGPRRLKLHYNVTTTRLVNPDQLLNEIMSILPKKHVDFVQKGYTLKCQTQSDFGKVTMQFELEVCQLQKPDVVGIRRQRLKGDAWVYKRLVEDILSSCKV

MUSK (human) = MUSK (human) (UniProt O15146)
Sequence of MUSK (human) (O15146 whole entry, looked up): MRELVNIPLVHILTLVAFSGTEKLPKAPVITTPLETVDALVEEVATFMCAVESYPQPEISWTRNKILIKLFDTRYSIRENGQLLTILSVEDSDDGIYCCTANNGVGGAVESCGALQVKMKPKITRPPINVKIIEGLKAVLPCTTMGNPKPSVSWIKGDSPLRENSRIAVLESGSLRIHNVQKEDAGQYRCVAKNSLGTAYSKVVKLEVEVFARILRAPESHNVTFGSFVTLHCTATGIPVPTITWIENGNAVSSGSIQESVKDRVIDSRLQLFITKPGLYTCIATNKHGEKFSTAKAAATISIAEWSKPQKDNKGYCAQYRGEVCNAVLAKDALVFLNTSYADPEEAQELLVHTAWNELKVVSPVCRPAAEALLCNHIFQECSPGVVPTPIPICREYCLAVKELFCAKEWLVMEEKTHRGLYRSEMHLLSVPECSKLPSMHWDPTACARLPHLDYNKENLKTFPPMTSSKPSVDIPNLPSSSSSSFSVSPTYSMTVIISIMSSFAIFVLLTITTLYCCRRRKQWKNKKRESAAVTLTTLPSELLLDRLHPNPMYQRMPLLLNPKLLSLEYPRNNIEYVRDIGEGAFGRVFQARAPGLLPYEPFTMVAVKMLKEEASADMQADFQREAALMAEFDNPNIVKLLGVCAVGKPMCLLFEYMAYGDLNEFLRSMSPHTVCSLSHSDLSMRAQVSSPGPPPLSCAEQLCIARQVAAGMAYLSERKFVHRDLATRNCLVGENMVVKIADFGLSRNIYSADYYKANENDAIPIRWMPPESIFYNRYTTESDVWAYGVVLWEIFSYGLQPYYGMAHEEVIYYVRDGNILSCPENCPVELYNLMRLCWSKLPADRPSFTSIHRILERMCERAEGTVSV

NUAK1 (human) = NUAK1 (human) (UniProt O60285)
PAK6 (human) = PAK6 (human) (UniProt Q9NQU5)
Sequence of PAK6 (human) (Q9NQU5 whole entry, looked up): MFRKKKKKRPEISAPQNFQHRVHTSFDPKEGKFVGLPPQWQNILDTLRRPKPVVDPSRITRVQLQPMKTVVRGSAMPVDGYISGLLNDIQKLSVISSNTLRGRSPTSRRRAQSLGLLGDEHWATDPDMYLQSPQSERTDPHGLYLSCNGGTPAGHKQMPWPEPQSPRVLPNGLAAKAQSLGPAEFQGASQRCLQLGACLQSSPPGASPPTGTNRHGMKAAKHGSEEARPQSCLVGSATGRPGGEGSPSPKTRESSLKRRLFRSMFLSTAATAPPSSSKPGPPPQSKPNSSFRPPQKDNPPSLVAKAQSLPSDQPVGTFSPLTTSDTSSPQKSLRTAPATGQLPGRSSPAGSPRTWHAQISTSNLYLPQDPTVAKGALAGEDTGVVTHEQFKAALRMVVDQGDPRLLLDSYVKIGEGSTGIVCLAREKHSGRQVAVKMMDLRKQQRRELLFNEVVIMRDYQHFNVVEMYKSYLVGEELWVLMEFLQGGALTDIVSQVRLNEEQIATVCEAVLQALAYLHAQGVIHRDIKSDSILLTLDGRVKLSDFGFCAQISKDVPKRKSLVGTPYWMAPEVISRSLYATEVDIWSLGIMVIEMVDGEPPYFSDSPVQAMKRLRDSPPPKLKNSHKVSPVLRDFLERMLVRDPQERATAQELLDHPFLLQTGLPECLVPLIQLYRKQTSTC

PAK7 (human) = PAK7 (human) (UniProt Q9P286)
PIM3 (human) = PIM3 (human) (UniProt Q86V86)
PKN1 (human) = PKN1 (human) (UniProt Q16512)
SGK3 (human) = SGK3 (human) (UniProt Q96BR1)
STK10 (human) = STK10 (human) (UniProt O94804)
STK17A (human) = STK17A (human) (UniProt Q9UEE5)
Sequence of STK17A (human) (Q9UEE5 whole entry, looked up): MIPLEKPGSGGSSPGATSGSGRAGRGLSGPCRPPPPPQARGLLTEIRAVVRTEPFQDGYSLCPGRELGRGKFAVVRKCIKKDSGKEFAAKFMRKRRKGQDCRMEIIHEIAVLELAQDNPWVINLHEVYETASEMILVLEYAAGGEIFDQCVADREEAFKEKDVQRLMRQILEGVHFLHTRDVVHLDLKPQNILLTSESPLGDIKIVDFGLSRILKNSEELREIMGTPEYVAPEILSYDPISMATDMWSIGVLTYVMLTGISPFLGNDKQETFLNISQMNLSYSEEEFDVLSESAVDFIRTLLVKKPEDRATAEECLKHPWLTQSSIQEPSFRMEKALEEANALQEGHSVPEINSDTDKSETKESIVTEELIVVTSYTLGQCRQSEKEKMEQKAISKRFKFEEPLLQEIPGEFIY

TGFBR1 (human) = TGFBR1 (human) (UniProt P36897)
ULK2 (human) = ULK2 (human) (UniProt Q8IYT8)

| Compound | residual activity (AURKA (human)) [%] | residual activity (AURKC (human)) [%] | residual activity (CAMK2A (human)) [%] | residual activity (CDC42BPA (human)) [%] | residual activity (CDK2 CCNE1 (human)) [%] | residual activity (CDK4 CCND3 (human)) [%] | residual activity (CDK5 CDK5R1 p25 (human)) [%] | residual activity (CSK (human)) [%] | residual activity (CSNK1D (human)) [%] | residual activity (CSNK1G3 (human)) [%] | residual activity (DSTYK (human)) [%] | residual activity (EPHB1 (human)) [%] | residual activity (EPHB2 (human)) [%] | residual activity (FLT3 (human)) [%] | residual activity (GSG2 (human)) [%] | residual activity (HIPK4 (human)) [%] | residual activity (INSR (human)) [%] | residual activity (ITK (human)) [%] | residual activity (JAK3 JH1 JH2 (human)) [%] | residual activity (LIMK1 (human)) [%] | other results |
| --- | --- | --- | --- | --- | --- | --- | --- | --- | --- | --- | --- | --- | --- | --- | --- | --- | --- | --- | --- | --- | --- |
| CO[C@H]1CC2CC[C@@H](C)[C@@](O)(O2)C(=O)C(=O)N2CCCC[C@H]2C(=O)OC([C@H](C)C[C@@H]2CC[C@@H](O)[C@H](OC)C2)CC(=O)[C@H](C)/C=C(\C)[C@@H](O)[C@@H](OC)C(=O)[C@H](C)C[C@H](C)/C=C/C=C/C=C/1C (stereo not given in full) | 81.5 | 95.6 | 105 | 95.6 | 91.3 | 104 | 96.3 | 101 | 110 | 108 | 107 | 110 | 114 | 95.6 | 103 | 92.9 | 90.3 | 92.5 | 92.4 | 89.8 | residual activity (LRRK2 (human)): 98.7%; residual activity (MAP3K3 (human)): 101%; residual activity (MAP3K8 (human)): 99.8%; residual activity (MAP3K9 (human)): 87.3%; residual activity (MAPK8 (human)): 100%; residual activity (MARK1 (human)): 98.8%; residual activity (MARK3 (human)): 99%; residual activity (MATK (human)): 92%; residual activity (MELK (human)): 97.8%; residual activity (MUSK (human)): 87.7%; residual activity (NUAK1 (human)): 101%; residual activity (PAK6 (human)): 112%; residual activity (PAK7 (human)): 106%; residual activity (PIM3 (human)): 106%; residual activity (PKN1 (human)): 96.2%; residual activity (SGK3 (human)): 98.1%; residual activity (STK10 (human)): 97.7%; residual activity (STK17A (human)): 95.9%; residual activity (TGFBR1 (human)): 99.5%; residual activity (ULK2 (human)): 120% |
| CNC(=O)c1cc(Oc2ccc(NC(=O)Nc3ccc(Cl)c(C(F)(F)F)c3)cc2)ccn1 | 103 | 106 | 95.3 | 85.2 | 98.2 | 114 | 97.2 | 90.3 | 103 | 99.8 | 97.7 | 102 | 93.2 | 9.22 | 99.3 | 4.85 | 106 | 106 | 99.4 | 76.8 | residual activity (LRRK2 (human)): 106%; residual activity (MAP3K3 (human)): 107%; residual activity (MAP3K8 (human)): 93.6%; residual activity (MAP3K9 (human)): 103%; residual activity (MAPK8 (human)): 92.8%; residual activity (MARK1 (human)): 80.3%; residual activity (MARK3 (human)): 103%; residual activity (MATK (human)): 114%; residual activity (MELK (human)): 93.6%; residual activity (MUSK (human)): 101%; residual activity (NUAK1 (human)): 103%; residual activity (PAK6 (human)): 104%; residual activity (PAK7 (human)): 95.9%; residual activity (PIM3 (human)): 100%; residual activity (PKN1 (human)): 106%; residual activity (SGK3 (human)): 101%; residual activity (STK10 (human)): 72.4%; residual activity (STK17A (human)): 96%; residual activity (TGFBR1 (human)): 94.1%; residual activity (ULK2 (human)): 106% |
